Experimental findings from US7115258B2, “Vesicular monoamine transporter gene therapy in parkinson's disease” (priority 1998, dated 2006) are described below.

The test system of this test is dopamine release. As to the kind of experiment: Release of stored dopamine from PFVMAA cells. The class given is cell-based, rat. The following applies: 20 μM A23187 in physiological media, 20 minutes. On the procedure: FIG. 3A and FIG. 3B. Release of stored dopamine from PFVMAA. (FIG. 3A) Time course of dopamine release from PFVMAA cells that were preincubated with 1 μM of L-DOPA for 2 hours to store dopamine (intracellular: open bar). After pre-incubation, the media was replaced with fresh media without L-DOPA and dopamine levels in the media (solid bar) were measured at one hour intervals. (FIG. 3B) The dopamine levels in the media (solid bar) and in the cell pellets (open bars) of PFVMAA cells in different calcium conditions. Cells were preincubated with 1 μM L-DOPA in the media for 3 hours, which were replaced with fresh physiological media (control), physiological media with 20 μM A23187 (Sigma), or by calcium-free media with 10 mM EGTA for 20 minutes of further incubation. Data represent the mean±SEM (n=3). n.d., nondetectable levels. n.s., no significant, * p<0.01, Student t-test analysis.
Catecholamine measurements were done in DMEM media (1 ml in each well) except for the experiments on Ca^++ effect which were done in physiological incubation medium consisting of 135 mM NaCl, 3 mM KCl, 2 mM CaCl2, 2 mM MgCl2, 10 mM glucose, 200 μM ascorbic acid, and 10 mM HEPES, pH 7.3.
To investigate the mechanism of dopamine release in the PFVMAA cells, intracellular calcium was manipulated by using calcium-free media and calcium ionophore. […]

On to `CNc1ccc2oc(C[C@H]3O[C@@]4(CC[C@H]3C)O[C@H]([C@H](C)C(=O)c3ccc[nH]3)[C@H](C)C[C@H]4C)nc2c1C(=O)O` [calcium ionophore, A23187], for which the “effect on dopamine release from PFVMAA cells” value was “trend for increased release of dopamine”.
